Results taken from PubChem BioAssay AID1963854 (Molecular Pharmacology Branch, DTP, NCI, 2024).
Several values for one entry are separate records, joined by “and”; a condition that tells them apart may be missing. Equal values may be shown once.

System: 186277-243-T-J2-PDC complex spheroid viability
Experiment: Anticancer human tumor 186277-243-T-J2-PDC patient-derived colon adenocarcinoma cell line growth inhibition [POLQ]
Settings: for viability, T/C: stronger effect = lower value; active = viability on the fitted dose curve at most 10% of control; inactive = the rest
Procedure: Multicellular complex tumor spheroid response to Polymerase (POL) inhibitors (novobiocin, ART-558, RP6685) in combination with a variety of drugs and investigational agents in selected tumor cell lines
The POL inhibitors (novobiocin, ART-558, and RP6685) were evaluated both individually and in combination with standard of care and investigational anticancer small molecules within a complex spheroid model of solid tumors. . Complex spheroids include a stromal component modeled by human endothelial cells (HUVEC) and fibroblasts modeled by human mesenchymal stem cells (MSCs). The concentration ranges selected for each drug and investigational agent were based upon clinically achievable concentrations if the clinical Cmax of the agent was known.
Compounds. The drugs and investigational agents: novobiocin (NSC847541), ART-558 (NSC835418), RP-6685 (NSC848927), peposertib (NSC802822), ceralasertib (NSC780249), elimusertib (NSC800525), camonsertib (NSC841442), AZD-1390 (NSC803789), olaparib (NSC753686), talazoparib (NSC767125), rucaparib (NSC756644), sotorasib (NSC818433), MRTX-1133 (NSC836407), SN-38 (NSC673596), topotecan (NSC609699), epotoside (NSC141540), doxorubicin (NSC123127), gemcitabine (NSC613327), 5-fluorouracil (NSC19893), paclitaxel (NSC125973), vemurafenib (NSC761431), MSA-2 (NSC828583), SN-011 (NSC837082), adavosertib (NSC754352), prexasertib (NSC758257), carboplatin (NSC241240) and oxaliplatin (NSC266046), were obtained from the National Cancer Institute (NCI) Developmental Therapeutics Program Chemical Repository (21). The FDA-approved anticancer drug set is available from the Developmental Therapeutics Program at https://dtp.cancer.gov/organization/dscb/obtaining/. […] The stock solutions were prepared in dimethyl sulfoxide (DMSO, Sigma-Aldrich, St. Louis, MO, cat. D2650), except for the platinum compounds which were prepared in saline (Quality Biological, Gaithersburg, MD, cat. 114-055-101), at 800-fold the tested concentration and stored at -70 degrees C prior to their use. All drugs and investigational agents were tested over a range starting from a high concentration at or near the clinical Cmax and decreasing in half-log increments. If the clinical Cmax for an agent had not been determined, the highest concentration tested was 10 microM, except for SN-38, which was tested at a high concentration of 1 microM.
Cell Culture. All cells were maintained in an incubator at 37 degrees C and 5% CO2 with 95% humidity. The PDC lines were cultured according to standard operating procedures established by the NCI PDMR (https://pdmr.cancer.gov). Table 3 of the manuscript, lists the cell lines along with the number of the three cell types plated to form the mct-spheroids and media for tumor cell growth. After thawing, all PDC lines, except 997537-175-T-J1-PDC and 415267-285-R-J2-PDC, were cultured in Matrigel-coated flasks prepared with a working solution of 1X Ham's F-12 nutrient mix, without supplementation (Thermo Fisher Scientific, cat. 11765054), 100 U/mL penicillin-streptomycin (Thermo Fisher Scientific, cat. 15140122), and 2.5% Matrigel (Corning Inc., Corning, NY, cat. 354248) for the first three passages. The two PDC lines 997537-175-T-J1-PDC and 415267-285-R-J2-PDC were cultured on uncoated flasks. The 857933-349-R-J2-PDC line was cultured in 6C/Colon 1B media containing advanced DMEM/F-12 (Thermo Fisher Scientific, cat. 12634028), 10 mM HEPES (Thermo Fisher Scientific, cat. 15630080), 1X GlutaMAX supplement (Thermo Fisher Scientific, cat. 35050061), 0.1 mg/mL primocin (InvivoGen, San Diego, CA, cat. ant-pm-2), 10% defined fetal bovine serum, heat inactivated (HyClone Laboratories Inc., Logan, UT, cat. SH30070.03HI), 50% L-WRN conditioned media (ATCC, cat. CRL-3276), 1.25 mM N-Acetyl-L-cysteine (Sigma-Aldrich, cat. A9165), 10 mM nicotinamide (Sigma-Aldrich, cat. N0636), 1X B-27 supplement (Thermo Fisher Scientific, cat. 17504044), 1X N-2 supplement (Thermo Fisher Scientific, cat. […]
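Note: spheroids exposed to compounds for seven days.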

COc1cccc2c1C(=O)c1c(O)c3c(c(O)c1C2=O)CC(O)(C(=O)CO)CC3OC1CC(N)C(O)C(C)O1 (centres undefined)
inactive: viability, T/C (compound 0.0316 µM) 109% and 154% and 91.8% | viability, T/C (compound 0.1 µM) 56.6% and 106% and 42.8%
118 nM and 250 nM and 84.5 nM: IC50 (curve of compound)
active: viability, T/C (compound 1 µM) 0.64% and 1.27% and 0.32% | viability, T/C (compound 3.16 µM) 0.26% and 1.06% and 0.23% | viability, T/C (compound 10 µM) 0.49% and 1.07% and 0.37%

CC1COCCN1c1cc(-c2ccnn2C)c2ccnc(-c3ccn[nH]3)c2n1 (centres undefined)
active: viability, T/C (compound 0.316 µM) 5.52% and 4.67% and 10.7% | viability, T/C (compound 1 µM) 4.69% and 4.34% and 7.36% | viability, T/C (compound 3.16 µM) 4.26% and 2.97% and 6.64% | viability, T/C (compound 10 µM) 4.3% and 3.61% and 9.38%
48.2 nM and 43.7 nM and 72.2 nM: IC50 (curve of compound)
inactive: viability, T/C (compound 0.0316 µM) 71.3% and 65.3% and 109% | viability, T/C (compound 0.1 µM) 13% and 10.7% and 26.4%

CCc1c2c(nc3ccc(O)cc13)-c1cc3c(c(=O)n1C2)COC(=O)[C@]3(O)CC + COC1C(OC(N)=O)C(O)C(Oc2ccc3c(O)c(NC(=O)c4ccc(O)c(CC=C(C)C)c4)c(=O)oc3c2C)OC1(C)C
active: viability, T/C (second compound 0.0316 µM, first compound 0.316 µM) 8.38% | viability, T/C (second compound 0.0316 µM, first compound 1 µM) 6.45% | viability, T/C (second compound 0.1 µM, first compound 0.316 µM) 8.32% | viability, T/C (second compound 0.1 µM, first compound 1 µM) 6.78% | viability, T/C (second compound 0.316 µM, first compound 0.316 µM) 7.76% | viability, T/C (second compound 0.316 µM, first compound 1 µM) 6.8% | viability, T/C (second compound 1 µM, first compound 0.316 µM) 8.22% | viability, T/C (second compound 1 µM, first compound 1 µM) 6.39% | viability, T/C (second compound 3.16 µM, first compound 0.316 µM) 7.9% | viability, T/C (second compound 3.16 µM, first compound 1 µM) 6.76% | viability, T/C (second compound 10 µM, first compound 0.1 µM) 8.88% | viability, T/C (second compound 10 µM, first compound 0.316 µM) 8.76% | viability, T/C (second compound 10 µM, first compound 1 µM) 6.74%
6.22 nM: IC50 (curve of first compound, second compound 0.316 µM)
4.2 nM: IC50 (curve of first compound, second compound 10 µM)
4.06 nM: IC50 (curve of first compound, second compound 3.16 µM)
5.81 nM: IC50 (curve of first compound, second compound 1 µM)
inactive: viability, T/C (second compound 0.0316 µM, first compound 0.00316 µM) 60.8% | viability, T/C (second compound 0.0316 µM, first compound 0.01 µM) 44.3% | viability, T/C (second compound 0.0316 µM, first compound 0.0316 µM) 21.4% | viability, T/C (second compound 0.0316 µM, first compound 0.1 µM) 11.2% | viability, T/C (second compound 0.1 µM, first compound 0.00316 µM) 65% | viability, T/C (second compound 0.1 µM, first compound 0.01 µM) 39.7% | viability, T/C (second compound 0.1 µM, first compound 0.0316 µM) 21.9% | viability, T/C (second compound 0.1 µM, first compound 0.1 µM) 10.4% | viability, T/C (second compound 0.316 µM, first compound 0.00316 µM) 61.1% | viability, T/C (second compound 0.316 µM, first compound 0.01 µM) 42% | viability, T/C (second compound 0.316 µM, first compound 0.0316 µM) 22.4% | viability, T/C (second compound 0.316 µM, first compound 0.1 µM) 10.3% | viability, T/C (second compound 1 µM, first compound 0.00316 µM) 61.8% | viability, T/C (second compound 1 µM, first compound 0.01 µM) 39.2% | viability, T/C (second compound 1 µM, first compound 0.0316 µM) 21.6% | viability, T/C (second compound 1 µM, first compound 0.1 µM) 10.2% | viability, T/C (second compound 3.16 µM, first compound 0.00316 µM) 53.1% | viability, T/C (second compound 3.16 µM, first compound 0.01 µM) 38.8% | viability, T/C (second compound 3.16 µM, first compound 0.0316 µM) 19.7% | viability, T/C (second compound 3.16 µM, first compound 0.1 µM) 9.79% | viability, T/C (second compound 10 µM, first compound 0.00316 µM) 52.9% | viability, T/C (second compound 10 µM, first compound 0.01 µM) 41.4% | viability, T/C (second compound 10 µM, first compound 0.0316 µM) 19%
6.31 nM: IC50 (curve of first compound, second compound 0.1 µM)
6.67 nM: IC50 (curve of first compound, second compound 0.0316 µM)

C=CC(=O)N1CCN(c2nc(=O)n(-c3c(C)ccnc3C(C)C)c3nc(-c4c(O)cccc4F)c(F)cc23)C(C)C1 (centres undefined)
inactive: viability, T/C (compound 0.0316 µM) 99.7% and 104% and 101% | viability, T/C (compound 0.1 µM) 93.3% and 94.9% and 105% | viability, T/C (compound 0.316 µM) 97.6% and 89.5% and 103% | viability, T/C (compound 1 µM) 96.6% and 85.6% and 99% | viability, T/C (compound 3.16 µM) 101% and 104% and 109% | viability, T/C (compound 10 µM) 103% and 95% and 93.3%
> 10000 nM: IC50 (curve of compound)

CC(=O)O[C@H]1C(=O)[C@@]2(C)[C@H]([C@H](OC(=O)c3ccccc3)[C@]3(O)C[C@H](OC(=O)[C@H](O)[C@@H](NC(=O)c4ccccc4)c4ccccc4)C(C)=C1C3(C)C)[C@]1(OC(C)=O)CO[C@@H]1C[C@@H]2O
inactive: viability, T/C (compound 0.00949 µM) 38.5% and 44.7% and 19.1%
< 9.49 nM: IC50 (curve of compound)
active: viability, T/C (compound 0.0949 µM) 7.36% and 7.77% and 3.51% | viability, T/C (compound 0.3 µM) 5.49% and 5.99% and 2.78% | viability, T/C (compound 0.949 µM) 5.37% and 6% and 2.77% | viability, T/C (compound 3 µM) 4.97% and 5.56% and 2.45%
10.6% and 11.3% and 5.03%: viability, T/C (compound 0.03 µM)
